Assays:
Format in all cases: cell-based, human
[1] = test system: IL-8 release from Caco-2 monolayers; assay: Release of IL-8 from polarised Caco-2 monolayers stimulated with LPS, TNF-α, IFN-β
Procedure: Inflammatory model of Caco-2 polarised monolayer stimulated with inflammatory mediators LPS, TNF-α, IFN-β: Polarised Caco-2 models were generated as previously described. When cell cultures reached a baseline TER of >1000/cm^2, the monolayers were stimulated by addition of 0.6 ml containing 50 ng/ml IFN-β, 10 μg/ml LPS and 5 ng/ml TNFα to the basolateral compartment. Immediately after the addition of the stimulation cocktail 0.25 ml of GaRP±0-80 μg/ml bromelain was applied to the apical compartment. After the 24 h incubation culture supernatants from the apical side were collected for quantitation of IL-8.
The human colorectal adenocarcinoma cell-line C2BBe1 was grown and maintained in Dulbecco's modified Eagle's medium (DMEM) supplemented with 10% v/v fetal bovine serum (FBS), 4 mM L-glutamine, 100 U/ml penicillin and […] streptomycin. All experiments were conducted on C2BBe1 cells within 12 passages after thawing.
In an experiment to evaluate the anti-inflammatory effect of bromelain or various GaRP formulations, 0.25 ml of test samples was applied to the apical side for 24 h, at the same time 0.6 ml of a cocktail containing 50 ng/ml IFN+10 ug/ml LPS+5 ng/ml TNF was added to the basolateral side in this model. After the 24 h incubation culture supernatants from the apical side were collected and IL-8 quantitated by ELISA.

Macrophage = assay: Observed therapeutic effective dose determined in the in vitro experiments (Table 4)
Procedure: (§1) The observed therapeutic effective dose was determined in the in vitro experiments described herein.
(§2) Table 4 summarises the observed therapeutic effective dose for each GaRP formulation component.

Enterocyte = assay: as above
Procedure: as §1, §2

For `CCCC(=O)O` [sodium butyrate], the “% inhibition of the release of IL-8 Median ± SEM” value ([1]; formulation or component plus 80 ug/ml bromelain, 24 h) was 71 ± 7%, the “% increase in anti-inflammatory activity compared to equivalent formulation without bromelain (difference of means)” value ([1]; plus 80 ug/ml bromelain) was 60% and the “% inhibition of the release of IL-8 Median ± SEM” value ([1]; without bromelain, test sample apical 24 h, IFN+LPS+TNF cocktail basolateral) was 11 ± 15%. For the same compound, the “observed therapeutic effective dose, Target cell Macrophage (pg/cell)” value (Macrophage) was 300 pg/cell and the “observed therapeutic effective dose, Target cell Enterocyte (pg/cell)” value (Enterocyte) was 15 pg/cell.
